Like-named read-outs stand apart in the source and are kept apart here.
Legend:
[1] = Water solubility / BCS classification of the compound of chemical formula 1; assay type: physicochemical
[2] = Comparative pharmacokinetic test of the formulation in beagle dog, Experimental Example 8; assay type: in vivo; settings: for AUC(0-t) / Cmax / Tmax / half-life / Vd/F / CL/F: beagle, dog, plasma; for Vd/F: read-out: Vz(terminal)/F; for CL/F: CL(inf)/F
Experimental: By applying the conditions of Preparation Example 10, tablets containing 25, 50, and 100 mg of the crystalline solid of chemical formula 1 as a pharmaceutical raw material were manufactured. An experiment was conducted to analyze the pharmacokinetic characteristics of the manufactured tablets after oral administration to a beagle dog.
The compound of chemical formula 1 was administered orally to a beagle dog as a single dose of 25, 50, and 100 mg tablets/head, orally as a single dose of 25 mg liquid/head, and intravenously as a single dose of 2 mg/kg. Blood samples were collected before (0) and 15, 30 min, 1, 1.5, 2, 4, 6, 8, 10, 16, and 24 hr after administration of the test substance to measure the blood concentration of the compound of chemical formula 1.
The preparation for single oral administration in liquid/head was prepared by homogeneously suspending 275 mg of the compound of chemical formula 1 in 220 ml of pre-prepared 2.5% HP-PCD (sterile water solution) to obtain 1.25 mg/ml. In addition, the preparation for single intravenous administration was prepared by dissolving 300 mg of the compound of chemical formula 1 in 150 ml of pre-prepared 10% HP-PCD (sterile water solution) to obtain 2 mg/ml.

[3] = Stability evaluation of the crystalline form of Example 1 (ICH long-term and accelerated storage, HPLC; PXRD); assay type: physicochemical; settings: for Content / Total impurities: HPLC
Experimental: The stability of the crystalline solid of the compound of chemical formula 1 prepared by Example 1 was evaluated. According to the ICH guideline, the stability test was conducted under long-term storage (25±2° C., 60±5% RH) and accelerated (40±2° C., 75±5% RH) conditions. The analysis was performed using HPLC to evaluate the change in content and the occurrence of impurities, and the results are shown in Table 1 below.
For a BCS Class 2 substance such as the compound of chemical formula 1, it is very important that the crystalline form remains stable under storage conditions. The more insoluble a substance is, the greater the impact of changes in crystallinity on the quality of the final product is. The change in the crystalline form causes changes in hygroscopicity, stability, dissolution, etc.

[4] = iv, 2 mg/kg, 2 mg/kg solution (iv), 10% HP-PCD, single dose, beagle dog plasma
[5] = po, 25 mg, 25 mg solution (po), per head, suspended in 2.5% HP-PCD, single dose, beagle dog plasma
[6] = po, 25 mg, 25 mg tablet (po), per head, single dose, beagle dog plasma
[7] = po, 50 mg, 50 mg tablet (po), per head, single dose, beagle dog plasma
[8] = po, 100 mg, 100 mg tablet (po), per head, single dose, beagle dog plasma
[9] = accelerated 40±2°C, 75±5% RH, 1 months
[10] = accelerated 40±2°C, 75±5% RH, 3 months
[11] = accelerated 40±2°C, 75±5% RH, 6 months
[12] = accelerated 40±2°C, 75±5% RH, Initial
[13] = long-term storage 25±2°C, 60±5% RH, 1 months
[14] = long-term storage 25±2°C, 60±5% RH, 3 months
[15] = long-term storage 25±2°C, 60±5% RH, 6 months
[16] = long-term storage 25±2°C, 60±5% RH, 12 months
[17] = long-term storage 25±2°C, 60±5% RH, Initial

## C[C@@H]1CN(c2ccc(S(C)(=O)=O)cc2F)CCN1c1nccc(C(=O)NC2C3CC4CC2CC(O)(C4)C3)n1 (stereo partly drawn) [chemical formula 1, 2-((R)-4-(2-fluoro-4-(methylsulfonyl)phenyl)-2-methylpiperazin-1-yl)-N-((1R,2s,3S,5S,7S)-5-hydroxyadamantan-2-yl)pyrimidine-4-carboxamide]
[1]
  Biopharmaceutics classification system (BCS) class: Class 2 (high permeability, low solubility)
  solubility according to pH: does not have the characteristic of improving solubility according to pH
[1]; water
  solubility: ≤ 1 µg/mL
[2]; 2 mg/kg solution (iv), 10% HP-PCD, single dose, beagle dog plasma
  CL(inf)/F: 0.33 L/h/kg
[2]; 25 mg solution (po), per head, single dose, beagle dog
  BA: 45.82 % F
[2]; 25 mg tablet (po), per head, single dose, beagle dog
  BA: 44.31 % F
[2]; 25 mg/head po, beagle dog
  average absorption (AUClast) of the tablet administration group relative to the liquid administration group: 96.7%
[2]; 50 mg tablet (po), per head, single dose, beagle dog
  BA: 35.37 % F
[2]; 100 mg tablet (po), per head, single dose, beagle dog
  BA: 25.40 % F
[2]; [4]
  AUC(0-t): 6.18 µg·h/mL
  Cmax: 1.16 µg/mL
  Tmax: 0.25 h
  half-life: 4.07 h
[2]; [5]
  AUC(0-t): 3.37 µg·h/mL
  Cmax: 0.393 µg/mL
  Tmax: 1.5 h
  half-life: 6.32 h
  Vd/F: 58.5 L
  CL/F: 6.9 L/h
[2]; [6]
  AUC(0-t): 3.26 µg·h/mL
  Cmax: 0.42 µg/mL
  Tmax: 2 h
  half-life: 4.42 h
  Vd/F: 49.4 L
  CL/F: 8.04 L/h
[2]; [7]
  AUC(0-t): 5.21 µg·h/mL
  Cmax: 0.666 µg/mL
  Tmax: 2 h
  half-life: 5.29 h
  Vd/F: 79.3 L
  CL/F: 10.2 L/h
[2]; [8]
  AUC(0-t): 7.48 µg·h/mL
  Cmax: 0.899 µg/mL
  Tmax: 1.75 h
  half-life: 6.89 h
  Vd/F: 119 L
  CL/F: 12.8 L/h
[3]; [9]
  Content: 99.6%
  Total impurities: 0.43%
[3]; [10]
  Content: 100.8%
  Total impurities: 0.44%
[3]; [11]
  Content: 100.0%
  Total impurities: 0.42%
[3]; [12]
  Content: 99.9%
  Total impurities: 0.34%
[3]; [13]
  Content: 99.5%
  Total impurities: 0.43%
[3]; [14]
  Content: 99.3%
  Total impurities: 0.41%
[3]; [15]
  Content: 100.5%
  Total impurities: 0.43%
[3]; [16]
  Content: 99.7%
  Total impurities: 0.45%
[3]; [17]
  Content: 99.9%
  Total impurities: 0.34%
[3]; stored 3, 6 and 12 months (12 months long-term only)
  crystalline form (PXRD) of stored stability samples: the crystalline form did not change
